Assay [1] addresses T1, SARS-CoV-2 PLpro (nsp3 1564–1878) (Severe acute respiratory syndrome coronavirus 2, UniProt P0DTD1). The assay can be described thus: biochemical. More on the design: FRET-quenched peptide (Pro3) cleavage by PLpro, 10 min pre-incubation, slope over 20 min, normalised to no-compound control. Conditions: low concentration screen, read-out: % of control remaining.
For assay [2], the target named is T1, SARS-CoV-2 PLpro (nsp3 1564–1878). Kind of assay: biochemical. Conditions: high concentration screen, read-out: % of control remaining. More on the design: FRET-quenched peptide (Pro3) cleavage by PLpro, 10 min pre-incubation, slope over 20 min, normalised to no-compound control.

Structures are written as SMILES. Where a name gives a salt, the structure may show the parent alone. Read-outs that look alike come from different tables or passages of the source.

With `CC1(C)S[C@@H]2[C@H](NC(=O)[C@H](N)c3ccccc3)C(=O)N2[C@H]1C(=O)O` [Ampicillin (sodium)], the remaining activity at 1.25 µM in assay [1] (Well no.=8708) is 101%. Further, in assay [2] (Well no.=8708), the remaining activity at 3.75 µM turned out to be 101%.
On to `CC1(C)S[C@@H]2[C@H](NC(=O)[C@H](N)c3ccccc3)C(=O)N2[C@H]1C(=O)O` [Ampicillin], for which the remaining activity at 1.25 µM in assay [1] (Well no.=2123) is 97.8%. The remaining activity at 3.75 µM in assay [2] (Well no.=2123) worked out at 97.3%.
In the case of `CCOC(=O)OC(C)OC1=C(C(=O)Nc2ccccn2)N(C)S(=O)(=O)c2ccccc21` (stereo not drawn) [Ampiroxicam], the remaining activity at 1.25 µM in assay [1] (Well no.=2125) was determined as 101%. The remaining activity at 3.75 µM in assay [2] (Well no.=2125) was 103%.
For `CC(C)CN(C[C@@H](O)[C@H](Cc1ccccc1)NC(=O)O[C@H]1CCOC1)S(=O)(=O)c1ccc(N)cc1` [Amprenavir], the remaining activity at 1.25 µM in assay [1] (Well no.=2242) was 101%; in assay [1] (Well no.=8648), 94.1%. In addition, the remaining activity at 3.75 µM in assay [2] (Well no.=2242) worked out at 102%; in assay [2] (Well no.=8648) it was 95.7%.
Turning to `CCCc1ncc(C[n+]2ccccc2C)c(N)n1` [Amprolium HCl], in assay [1] (Well no.=8588), the remaining activity at 1.25 µM worked out at 106%. Further, the remaining activity at 3.75 µM in assay [2] (Well no.=8588) was 108%.
On to `COc1cc(NS(C)(=O)=O)ccc1Nc1c2ccccc2nc2ccccc12` [Amsacrine hydrochloride], for which the remaining activity at 1.25 µM in assay [1] (Well no.=346) is 97.8%. Further, the remaining activity at 3.75 µM in assay [2] (Well no.=346) was found to be 103%.
For `N#C[C@H](O[C@@H]1O[C@H](CO[C@@H]2O[C@H](CO)[C@@H](O)[C@H](O)[C@H]2O)[C@@H](O)[C@H](O)[C@H]1O)c1ccccc1` [Amygdalin], the remaining activity at 1.25 µM in assay [1] (Well no.=3472) was determined as 100%. Besides, the remaining activity at 3.75 µM in assay [2] (Well no.=3472) was determined as 102%.
In the case of `COc1cc(F)c(C(C)C)cc1-c1ccc(C(F)(F)F)cc1CN1C(=O)O[C@H](c2cc(C(F)(F)F)cc(C(F)(F)F)c2)[C@@H]1C` [Anacetrapib (MK-0859)], the remaining activity at 1.25 µM in assay [1] (Well no.=5312) worked out at 94.2%. Moreover, in assay [2] (Well no.=5312), the remaining activity at 3.75 µM came to 93.1%.
As to `O=C1CN2Cc3c(ccc(Cl)c3Cl)N=C2N1` [Anagrelide HCl], the remaining activity at 1.25 µM in assay [1] (Well no.=5022) is 93.8%. In assay [2] (Well no.=5022), the remaining activity at 3.75 µM was 99%.
For the molecule `O=C1CN2Cc3c(ccc(Cl)c3Cl)N=C2N1` [Anagrelide], the remaining activity at 1.25 µM in assay [1] (Well no.=1629) worked out at 95.8%. Moreover, the remaining activity at 3.75 µM in assay [2] (Well no.=1629) was determined as 97.6%.
Regarding `CN(C)N(C)C(=O)[C@@]1(Cc2ccccc2)CCCN(C(=O)[C@@H](Cc2c[nH]c3ccccc23)NC(=O)C(C)(C)N)C1` [Anamorelin (hydrochloride)], the remaining activity at 1.25 µM in assay [1] (Well no.=7291) was 98.3%. In assay [2] (Well no.=7291), the remaining activity at 3.75 µM turned out to be 97.8%.
As to `CN(C)N(C)C(=O)[C@@]1(Cc2ccccc2)CCCN(C(=O)[C@@H](Cc2c[nH]c3ccccc23)NC(=O)C(C)(C)N)C1` [Anamorelin], the remaining activity at 1.25 µM in assay [1] (Well no.=8437) is 97.3%. Further, the remaining activity at 3.75 µM in assay [2] (Well no.=8437) came out at 96.9%.
For `CCCCC/C=C\C/C=C\C/C=C\C/C=C\CCCC(=O)NCCO` [Anandamide (20:4, n-6)], the remaining activity at 1.25 µM in assay [1] (Well no.=4290) was determined as 99.3%. In addition, the remaining activity at 3.75 µM in assay [2] (Well no.=4290) amounted to 93%.
Regarding `CC(C)(C#N)c1cc(Cn2cncn2)cc(C(C)(C)C#N)c1` [Anastrozole], in assay [1] (Well no.=1858), the remaining activity at 1.25 µM was determined as 101%. In assay [2] (Well no.=1858), the remaining activity at 3.75 µM was 102%.
As to `N=c1ccn2c(n1)O[C@H]1[C@H](O)[C@@H](CO)O[C@H]12` [Ancitabine hydrochloride], the remaining activity at 1.25 µM in assay [1] (Well no.=294) is 98.8%. In addition, the remaining activity at 3.75 µM in assay [2] (Well no.=294) was found to be 93.7%.
In the case of `CC(=O)Nc1ccc(OC[C@](C)(O)C(=O)Nc2ccc([N+](=O)[O-])c(C(F)(F)F)c2)cc1` [Andarine (GTX-007)], the remaining activity at 1.25 µM in assay [1] (Well no.=5053) turned out to be 102%. In addition, the remaining activity at 3.75 µM in assay [2] (Well no.=5053) was determined as 104%.
As to `C=C1CC[C@@H]2[C@](C)(CO)[C@H](O)CC[C@@]2(C)[C@@H]1C/C=C1/C(=O)OC[C@H]1O` [Andrographolide], the remaining activity at 1.25 µM in assay [1] (Well no.=3435) was found to be 93.4%. In addition, in assay [2] (Well no.=3435), the remaining activity at 3.75 µM is 96.9%.

Source of the values: PMC8286840, “Identifying SARS-CoV-2 antiviral compounds by screening for small molecule inhibitors of Nsp3 papain-like protease” (Biochemical Journal, 2021).
